Where a name gives a salt, the structure may show the parent alone.
Tested on: prurigo nodularis patients
Test: TR03ext (Example 3): PAS prurigo lesions with excoriations/crusts; Stage 0 0%, Stage 1 1%-25%, Stage 2 26%-50%, Stage 3 51%-75%, Stage 4 76%-100%
Assay type: in vivo, human
Text: In some embodiments, after the treatment the patient experiences a substantial reduction of itch that is characterized by at least one category/stage improvement in Prurigo Activity Score (PAS). In particular embodiments, after the treatment the patient experiences a reduction of itch that results in at least one category/stage improvement in Prurigo Activity Score (PAS) domains of number of prurigo lesions, prurigo lesions with excoriations/crusts and/or healed prurigo lesions. The PAS consists of 7 qualitative and quantitative measurements related to the examination of the skin. Type, number, distribution, affected body parts, and quantitative number of lesions in a representative body part are documented. The biggest lesion and the most representative lesion are monitored with documentation of height and area measurements. Prurigo lesion activity is recorded as a percentages based on their stage (0-4). In some embodiments, number measurements of lesions on the body have four numerical categories: 0, 1-19, 20-100 and >100. In some embodiments, prurigo lesions with excoriations/crusts have five categories: Stage 4 (76%-100%), Stage 3 (51%-75%), Stage 2 (26%-50%), Stage 1 (1-25%) and Stage 0 (0%). In some embodiments, healed prurigo lesions have five categories: Stage 4 (0-24%), Stage 3 (25-49%), Stage 2 (50-74%), Stage 1 (75%-99%), Stage 0 (100%).
This clinical study was a Phase 2 Open Label Extension Study (clinical study TR03ext) of the randomized, double-blind, 3-parallel arm, placebo controlled dose ranging study described in Example 2. All those subjects who were randomized, and then completed Example 2 study, were eligible to participate in the Extension Study.
The primary endpoint was a description of the overall incidence and nature of Treatment-Emergent AEs (TEAES) during weeks 5-50 of the study. Exploratory efficacy endpoints included Change from Baseline patient reported outcome measures of Worst itch NRS, itchy VRS and ItchyQoL, by Treatment Period study visit and Baseline NRS score. There was also an assessment of any potential skin lesion changes over time using the metrics of the PAS.
Patients in Extension Study were titrated over a dose range of 30 mg QD to 180 mg BID based on tolerability. The selected dose range was based on Example 2 study whereby patients were titrated from a 30 mg QD dose either to 30 mg BID, 60 mg BID, 90 mg BID, 120 mg BID or a 180 mg BID dose. The highest dose proposed was 180 mg BID (360 mg daily dose), and was well below the highest recommended daily treatment of 160 mg IV (equivalent to 960 mg oral) for the current marketed parenteral administered product.
Table 15, 16 and 17 display excoriations/crusts lesion PAS data for subjects who received treatment for at least 6 months, subjects who received treatment for at least 9 months and subjects who completed 50 weeks of treatment in the study, respectively. The status of the prurigo lesions with excoriations/crusts is reported as percentages based on their stage (0-4) using a grading system: Stage 0 (0% excoriations/crusts); Stage 1 (1%-25% excoriations/crusts); Stage 2 (26%-50% excoriations/crusts); Stage 3 (51%-75% excoriations/crusts); Stage 4: (76%-100% excoriations/crusts). Thus, the higher the stage, the more severe is the prurigo skin pathology.

[1] = treatment for at least 6 months

## Oc1ccc2c3c1OC1[C@@H](O)CC[C@@]4(O)[C@@H](C2)N(CC2CCC2)CC[C@]314 (stereo partly drawn) [Nalbuphine, 17-(cyclobutylmethyl)-4,5α-epoxymorphinian-3, 6α, 14-triol, hydrochloride]
After 6 months, 13/16
  Subjects with at least one category improvement (lesser stage) in the percentage of excoriations/crust lesions (PAS): 81.2%
After 9 months, 9/13
  Subjects with at least one category improvement (lesser stage) in the percentage of excoriations/crust lesions (PAS): 69.2%
After 12 months, 8/12
  Subjects with at least one category improvement (lesser stage) in the percentage of excoriations/crust lesions (PAS): 66.6%
Treatment for 50 weeks
  Excoriated/Crusts PAS Category Shift: Baseline Stage 0 to Last Observed Stage 0: 1 (7.1%) Number (%) of Subjects
  Excoriated/Crusts PAS Category Shift: Baseline Stage 0 to Last Observed Stage 1: 0 Number (%) of Subjects
  Excoriated/Crusts PAS Category Shift: Baseline Stage 0 to Last Observed Stage 2: 0 Number (%) of Subjects
  Excoriated/Crusts PAS Category Shift: Baseline Stage 0 to Last Observed Stage 3: 0 Number (%) of Subjects
  Excoriated/Crusts PAS Category Shift: Baseline Stage 0 to Last Observed Stage 4: 0 Number (%) of Subjects
  Excoriated/Crusts PAS Category Shift: Baseline Stage 1 to Last Observed Stage 0: 0 Number (%) of Subjects
  Excoriated/Crusts PAS Category Shift: Baseline Stage 1 to Last Observed Stage 1: 1 (7.7%) Number (%) of Subjects
  Excoriated/Crusts PAS Category Shift: Baseline Stage 1 to Last Observed Stage 2: 0 Number (%) of Subjects
  Excoriated/Crusts PAS Category Shift: Baseline Stage 1 to Last Observed Stage 3: 0 Number (%) of Subjects
  Excoriated/Crusts PAS Category Shift: Baseline Stage 1 to Last Observed Stage 4: 1 (7.7%) Number (%) of Subjects
  Excoriated/Crusts PAS Category Shift: Baseline Stage 2 to Last Observed Stage 0: 0 Number (%) of Subjects
  Excoriated/Crusts PAS Category Shift: Baseline Stage 2 to Last Observed Stage 1: 5 (38.5%) Number (%) of Subjects
  Excoriated/Crusts PAS Category Shift: Baseline Stage 2 to Last Observed Stage 2: 0 Number (%) of Subjects
  Excoriated/Crusts PAS Category Shift: Baseline Stage 2 to Last Observed Stage 3: 0 Number (%) of Subjects
  Excoriated/Crusts PAS Category Shift: Baseline Stage 2 to Last Observed Stage 4: 0 Number (%) of Subjects
  Excoriated/Crusts PAS Category Shift: Baseline Stage 3 to Last Observed Stage 0: 0 Number (%) of Subjects
  Excoriated/Crusts PAS Category Shift: Baseline Stage 3 to Last Observed Stage 1: 0 Number (%) of Subjects
  Excoriated/Crusts PAS Category Shift: Baseline Stage 3 to Last Observed Stage 2: 2 (15.4%) Number (%) of Subjects
  Excoriated/Crusts PAS Category Shift: Baseline Stage 3 to Last Observed Stage 3: 1 (7.7%) Number (%) of Subjects
  Excoriated/Crusts PAS Category Shift: Baseline Stage 3 to Last Observed Stage 4: 0 Number (%) of Subjects
  Excoriated/Crusts PAS Category Shift: Baseline Stage 4 to Last Observed Stage 0: 1 (7.7%) Number (%) of Subjects
  Excoriated/Crusts PAS Category Shift: Baseline Stage 4 to Last Observed Stage 1: 0 Number (%) of Subjects
  Excoriated/Crusts PAS Category Shift: Baseline Stage 4 to Last Observed Stage 2: 0 Number (%) of Subjects
  Excoriated/Crusts PAS Category Shift: Baseline Stage 4 to Last Observed Stage 3: 0 Number (%) of Subjects
  Excoriated/Crusts PAS Category Shift: Baseline Stage 4 to Last Observed Stage 4: 1 (7.7%) Number (%) of Subjects
  Excoriated/Crusts PAS: Last Observed PAS Result Stage 0: 2 (15.4) Number (%) of Subjects
  Excoriated/Crusts PAS: Last Observed PAS Result Stage 1: 6 (46.2) Number (%) of Subjects
  Excoriated/Crusts PAS: Last Observed PAS Result Stage 2: 2 (15.4) Number (%) of Subjects
  Excoriated/Crusts PAS: Last Observed PAS Result Stage 3: 1 (7.7) Number (%) of Subjects
  Excoriated/Crusts PAS: Last Observed PAS Result Stage 4: 2 (15.4) Number (%) of Subjects
[1]
  Excoriated/Crusts PAS Category Shift: Baseline Stage 0 to Last Observed Stage 0: 1 (5.9%) Number (%) of Subjects
  Excoriated/Crusts PAS Category Shift: Baseline Stage 0 to Last Observed Stage 1: 0 Number (%) of Subjects
  Excoriated/Crusts PAS Category Shift: Baseline Stage 0 to Last Observed Stage 2: 0 Number (%) of Subjects
  Excoriated/Crusts PAS Category Shift: Baseline Stage 0 to Last Observed Stage 3: 0 Number (%) of Subjects
  Excoriated/Crusts PAS Category Shift: Baseline Stage 0 to Last Observed Stage 4: 0 Number (%) of Subjects
  Excoriated/Crusts PAS Category Shift: Baseline Stage 1 to Last Observed Stage 0: 0 Number (%) of Subjects
  Excoriated/Crusts PAS Category Shift: Baseline Stage 1 to Last Observed Stage 1: 1 (5.9%) Number (%) of Subjects
  Excoriated/Crusts PAS Category Shift: Baseline Stage 1 to Last Observed Stage 2: 0 Number (%) of Subjects
  Excoriated/Crusts PAS Category Shift: Baseline Stage 1 to Last Observed Stage 3: 0 Number (%) of Subjects
  Excoriated/Crusts PAS Category Shift: Baseline Stage 1 to Last Observed Stage 4: 1 (5.9%) Number (%) of Subjects
  Excoriated/Crusts PAS Category Shift: Baseline Stage 2 to Last Observed Stage 0: 1 (5.9%) Number (%) of Subjects
  Excoriated/Crusts PAS Category Shift: Baseline Stage 2 to Last Observed Stage 1: 5 (29.4%) Number (%) of Subjects
  Excoriated/Crusts PAS Category Shift: Baseline Stage 2 to Last Observed Stage 2: 0 Number (%) of Subjects
